# Experimental data from patent US5380745A, “Medicinal composition” (Meiiji Seika Kaisha, Ltd., priority 1991, dated 1995).
# Like-named read-outs stand apart in the source and are kept apart here.
# How the values were obtained:
# [1] = test system: parasites in digestive tract of unigastric animals; conditions: used alone; unigastric animals such as fowl, dog, cat and swine; cited from earlier work
# parasites = conditions: rumenal animals such as cattle, sheep and goat; cited from earlier work
# [2] = PF1022 substance, in words, cited from earlier work
# [3] = test system: cattle nematodes in the digestive tract; assay: Anthelmintic effect on cattle nematodes in the digestive tract (EPG); format: in vivo; conditions: oral 25 mg PF1022 substance/kg/day for two days
# Description: (§1) The medicinal composition of the present invention was administered to animals in an amount corresponding to a definite amount of PF1022 substance. The whole feces was collected everyday and the number of parasitic eggs per gram of the feces (EPG) were counted. Two weeks after the initiation of the administration, each animal was dissected and the number of parasites remaining in the intestine were counted.
# (§2) The medicinal composition obtained in Example 1 was orally administered in a dose as corresponding to 25 mg of PF1022 substance/kg/day for two days. As a control, PF1022 substance alone was administered in the same manner as those described above. […] Each of the medicinal composition as shown in Table 4 was orally administered in a dose corresponding to 5 mg of PF1022 substance/kg/day for two days. As a control, PF1022 substance alone was orally administered in a dose of 25 mg/kg/day for two days.
# [4] = test system: sheep nematodes in the digestive tract; assay: Anthelmintic effect on sheep nematodes in the digestive tract (EPG); format: in vivo; conditions: PF1022 substance alone oral 25 mg/kg/day for two days
# Description: as §1, §2
# [5] = Water solubility of PF1022 substance (elution into buffer, HPLC); format: physicochemical; conditions: aqueous buffer, 40 °C, 50 mg PF1022 substance in 50 ml, read-out: Concentration of PF1022 substance
# Description: The compositions of Examples 1 to 9 and PF1022 substance alone, employed as a control, were tested. Each composition was weighed in a 100 ml-Erlenmeyer flask, in an amount corresponding to 50 mg of PF1022 substance and 50 ml of McDougall buffer or Clark Lubs buffer was added thereto. McDougall buffer is prepared by dissolving 7.43 g of sodium hydrogencarbonate, 7.0 g of disodium phosphate 12-hydrate, 0.34 g of sodium chloride, 0.43 g of potassium chloride, 0.10 g of magnesium chloride hexahydrate and 0.05 g of calcium chloride in 1,000 ml of water and saturating the mixture with carbon dioxide gas (pH 6.8). Clark Lubs buffer is prepared by adding 50 ml of 0.2N potassium chloride and 10.6 ml of 0.2N hydrochloric acid to 139.4 ml of water (pH 2.0). The mixture was shaken in a thermostat at 40 °±0.5° C. at a vibrational amplitude of 4 cm at 60 rpm to figure eight. Sampling was made with the lapse of time and the amount of the eluate was determined by high performance liquid chromatography.
smiles,measurement,setting,value
CC(C)CC1C(=O)OC(Cc2ccccc2)C(=O)N(C)C(CC(C)C)C(=O)OC(C)C(=O)N(C)C(CC(C)C)C(=O)OC(Cc2ccccc2)C(=O)N(C)C(CC(C)C)C(=O)OC(C)C(=O)N1C (stereo not shown) [PF1022 substance],anthelmintic effect,[1],particularly marked anthelmintic effect
same,dosage required relative to unigastric animals,parasites,5 to 10 times
same,solubility in water,[2],extremely poor solubility in water
same,solubility in water,[2]; listed as PF1022 Substance,practically insoluble or hardly dispersible in water
same,Number of eggs per gram of feces (EPG),[3]; day 0,112 EPG
same,Number of eggs per gram of feces (EPG),[3]; day 1,80 EPG
same,Number of eggs per gram of feces (EPG),[3]; day 3,34 EPG
same,Number of eggs per gram of feces (EPG),[3]; day 5,41 EPG
same,Number of eggs per gram of feces (EPG),[3]; day 7,49 EPG
same,Number of eggs per gram of feces (EPG),[3]; day 10,36 EPG
same,Number of eggs per gram of feces (EPG),[3]; day 14,40 EPG
same,Number of eggs per gram of feces (EPG),[4]; day 0,2997 EPG
same,Number of eggs per gram of feces (EPG),[4]; day 1,2313 EPG
same,Number of eggs per gram of feces (EPG),[4]; day 3,13 EPG
same,Number of eggs per gram of feces (EPG),[4]; day 5,9 EPG
same,Number of eggs per gram of feces (EPG),[4]; day 7,32 EPG
same,Number of eggs per gram of feces (EPG),[4]; day 10,12 EPG
same,Number of eggs per gram of feces (EPG),[4]; day 14,8 EPG
same,solubility at 1 h,[5]; Clark Lubs buffer (pH 2.0),< 1 µg/mL
same,solubility at 24 h,[5]; Clark Lubs buffer (pH 2.0),< 1 µg/mL
same,solubility at 1 h,[5]; McDougall buffer (pH 6.8),< 1 µg/mL
same,solubility at 24 h,[5]; McDougall buffer (pH 6.8),< 1 µg/mL
